Tests used:
apoPGHS-1 = assay: Inhibition of cyclooxygenase activity of apoPGHS-1 and reactivation by hydroxylamine; type: biochemical, ovine
human PGHS-2 = biological target: T1, human PGHS-2 (Homo sapiens, UniProt P35354); assay: Time- and concentration-dependent inhibition of human PGHS-2, TLC assay (3 h preincubation); type: biochemical; conditions: for IC50 / IC50 (PGHS-1)/IC50 (PGHS-2): Table 2; for IC50: PGHS-2 88 nM; for IC50 (PGHS-1)/IC50 (PGHS-2): selectivity ratio, 180 min
T1 construct: made in house; host or cells: insect cells (baculovirus vectors)
T1 sequence (P35354 18-604): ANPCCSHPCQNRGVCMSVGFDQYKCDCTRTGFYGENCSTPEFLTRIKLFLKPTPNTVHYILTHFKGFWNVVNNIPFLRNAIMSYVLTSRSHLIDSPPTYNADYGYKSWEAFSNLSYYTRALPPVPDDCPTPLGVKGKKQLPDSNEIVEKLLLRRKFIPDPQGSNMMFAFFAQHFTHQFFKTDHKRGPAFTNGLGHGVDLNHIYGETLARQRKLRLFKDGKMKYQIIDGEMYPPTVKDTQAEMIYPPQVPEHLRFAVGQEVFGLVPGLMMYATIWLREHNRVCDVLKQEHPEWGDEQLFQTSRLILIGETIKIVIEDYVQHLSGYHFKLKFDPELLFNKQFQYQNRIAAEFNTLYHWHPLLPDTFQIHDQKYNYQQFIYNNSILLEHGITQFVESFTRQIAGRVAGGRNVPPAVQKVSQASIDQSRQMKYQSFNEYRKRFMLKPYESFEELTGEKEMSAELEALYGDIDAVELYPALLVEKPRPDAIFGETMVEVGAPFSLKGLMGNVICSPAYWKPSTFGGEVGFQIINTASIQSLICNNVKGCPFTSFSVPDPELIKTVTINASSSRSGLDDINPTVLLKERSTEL
Method: (§1) Cyclooxygenase activity of ovine PGHS-1 (22 nM) or human PGHS-2 (88 nM) was assayed by TLC. Reaction mixtures of 200 μL consisted of hematin-reconstituted protein in 100 mM Tris-HCl, pH 8.0, 500 μM phenol, and [1-^14 C]arachidonic acid (50 μM, 57 mCi/mmol). For the time-dependent inhibition assay, hematin-reconstituted PGHS-1 (22 nM) or PGHS-2 (88 nM) was preincubated at room temperature for 2 hours and then at 0° C. for 1 hour with varying concentrations of inhibitor in DMSO followed by the addition of [1-^14 C]arachidonic acid (50 μM) for 30 seconds at 37° C. Reactions were terminated by solvent extraction in diethyl ether/methanol/1 M citrate, pH 4.0 (30:4:1). The organic phase was spotted on a TLC plate (Amersham Corp.). The plate was developed with ethyl acetate/methylene chloride/glacial acetic acid (75:25:1) at 4° C. Radiolabeled products were quantitated with a radioactivity scanner (Bioscan, Inc., Washington, D.C.).
(§2) conducted at room temperature for 3 hours. The cyclooxygenase reaction was
(§3) initiated by the addition of 14C-arachidonic acid (50 μM) to the
(§4) incubation mixtures at 37 C for 30 seconds.
(§5) conducted at room temperature for 3 hours. The cyclooygenase reaction was
(§6) initiated by the addition of ^14 C-arachidonic acid ([…]) to the
(§7) incubation mixtures at 37° C. for 30 sec.

holoPGHS-2 = assay: pH dependence of time-dependent inhibition of cyclooxygenase activity of holoPGHS-2, oxygen uptake assay; type: biochemical, human
Method: ApoPGHS-2 (5 μM, 1.62 μg/μL) in 100 mM sodium phosphate buffer of pH 6, 7, 8, and 9 was reconstituted with 2 equivalents of hematin. Compound 2 (1000-fold excess) in DMSO was added to the reaction mixture. Periodically, 0.16 μM enzyme aliquots (final inhibitor concentration ~178 μM) were analyzed for remaining cyclooxygenase activity. Open circles, cyclooxygenase activity of holoPGHS-2 treated with 2 at pH 6; closed circles, cyclooxygenase activity of holoPGHS-2+2 at pH 7; open squares, cyclooxygenase activity of holoPGHS-2+2 at pH 8; closed squares, cyclooxygenase activity of holoPGHS-2+2 at pH 9. Control experiments in the absence of inhibitor remained linear throughout the assay period.
ApoPGHS-2 (5 μM, 1.62 μg/μL) in 100 mM sodium phosphate buffer of pH 6, 7, 8, and 9 was reconstituted with 2 equivalents of hematin. Compound 54 (181 μM) in DMSO was added to the reaction mixture. Periodically, 0.16 μM enzyme aliquots (final inhibitor concentration ~6 μM) were analyzed for remaining cyclooxygenase activity. […]
Oxygen consumption was measured at 37° C. with a Gilson model 5/6 oxygraph (Gilson Medical Electronics, Inc., Middleton, Wis.) equipped with a clark electrode and a thermostated cuvette. […] Oxygen uptake was initiated by the addition of 100 μM sodium arachidonate, and the initial reaction velocity was determined from the linear portion of the oxygen uptake curve. […]

apo- and holoPGHS-2 = assay: Inactivation of cyclooxygenase activity of apo- and holoPGHS-2 and reactivation by hydroxylamine; type: biochemical, human; conditions: 10 mM inhibitor, pH 8, 37° C.
Method: Apo or HoloPGHS-2 ([…]) was inactivated with a 1000-fold excess of 2-acetoxythioanisole (2) at 22.5° C. in 100 mM Tris-HCl buffer, pH 8 containing […] phenol for the indicated time period, and then hydroxylamine (80 mM) in 10 mM Tris-HCl buffer, pH 7.5 was added as indicated by the arrow. Periodic 0.16 μM aliquots of holoPGHS-2 (open circles), holoPGHS-2+2-acetoxythioanisole (open squares), apoPGHS-2 (closed circles), apoPGHS-2+2-acetoxythioanisole (closed squares) were analyzed for remaining cyclooxygenase activity.
Oxygen consumption was measured at 37° C. with a Gilson model 5/6 oxygraph (Gilson Medical Electronics, Inc., Middleton, Wis.) equipped with a clark electrode and a thermostated cuvette. […] Oxygen uptake was initiated by the addition of 100 μM sodium arachidonate, and the initial reaction velocity was determined from the linear portion of the oxygen uptake curve.
ApoPGHS-2 (5 μM) or apoPGHS-2 (5 μM), reconstituted with 2 equivalents of hematin in 100 mM Tris-HCl, pH 8 at 37° C. containing 500 μM phenol was treated with 2-acetoxy-1-thioanisole (10 mM). Periodically, 0.16 μM enzyme aliquots were analyzed for remaining cyclooxygenase activity as described earlier. […] Hydroxylamine hydrochloride (80 mM) in 10 mM Tris-HCl, pH 7.5 was then added to the incubation mixture and 0.16 μM enzyme aliquots were analyzed for reactivation of the inhibited cyclooxygenase-2. […]

[1] = tested on: PGHS-2 in activated RAW264.7 macrophages; assay: Inhibition of PGHS-2 in activated RAW264.7 macrophages; type: cell-based, murine; conditions: RAW 264.7, LPS and γ-interferon; for inhibitory effect on PGHS-2 in activated macrophages compared with aspirin: FIGS. 14 and 15, aspirin 100 μM; for inhibition of cyclooxygenase activity in activated macrophages: FIG. 16
Method: RAW 264.7 cells were activated for 7 hours at 37° C. in serum free DMEM with LPS (500 ng/mL) and γ-interferon (10 U/mL).
RAW 264.7 cells were activated for 7 hours at 37° C. in serum free DMEM with LPS (500 ng/mL) and γ-interferon (10 U/mL). […] The cyclooxygenase reaction was initiated by adding [1-^14 C]-arachidonic acid (20 μM) for 15 min at 37° C.
The murine macrophage cell line RAW264.7 were seeded overnight for 30% confluency the following morning. Overnight DMEM and fetal bovine serum (FBS) was removed and 2 mL DMEM containing 1.5% FBS±500 ng/mL LPS and 10 units/mL interferon-γ were added for 7.5 hours at 37° C. […] Arachidonic acid metabolism was measured by adding 20 μM 14C-AA for 15 min at room temperature. Aliquots (200 μL) were removed into termination solution and run on TLC plates. In the case of 2-acetoxythioanisole (2), following 8 hours of activation, 500 μM 2 was added for the next 3.5 hours. After 11.5 hours of activation, 20 μM [1-^14 C]arachidonic acid was incubated with the cells for 20 minutes at room temperature, and total products were determined by TLC.

ovine PGHS-1 [2] = biological target: T2, ovine PGHS-1 (Ovis aries, UniProt P05979); assay: Time- and concentration-dependent inhibition of ovine PGHS-1, TLC assay (3 h preincubation); type: biochemical; conditions: Table 2; PGHS-1 22 nM, 3 h at room temperature
T2 construct: PGHS-1 was purified from sheep seminal vesicles as described earlier; tissue Oxford Biomedical Research, Inc. (supplier of the sheep seminal vesicles); host or cells: sheep seminal vesicles
T2 sequence (P05979 25-600): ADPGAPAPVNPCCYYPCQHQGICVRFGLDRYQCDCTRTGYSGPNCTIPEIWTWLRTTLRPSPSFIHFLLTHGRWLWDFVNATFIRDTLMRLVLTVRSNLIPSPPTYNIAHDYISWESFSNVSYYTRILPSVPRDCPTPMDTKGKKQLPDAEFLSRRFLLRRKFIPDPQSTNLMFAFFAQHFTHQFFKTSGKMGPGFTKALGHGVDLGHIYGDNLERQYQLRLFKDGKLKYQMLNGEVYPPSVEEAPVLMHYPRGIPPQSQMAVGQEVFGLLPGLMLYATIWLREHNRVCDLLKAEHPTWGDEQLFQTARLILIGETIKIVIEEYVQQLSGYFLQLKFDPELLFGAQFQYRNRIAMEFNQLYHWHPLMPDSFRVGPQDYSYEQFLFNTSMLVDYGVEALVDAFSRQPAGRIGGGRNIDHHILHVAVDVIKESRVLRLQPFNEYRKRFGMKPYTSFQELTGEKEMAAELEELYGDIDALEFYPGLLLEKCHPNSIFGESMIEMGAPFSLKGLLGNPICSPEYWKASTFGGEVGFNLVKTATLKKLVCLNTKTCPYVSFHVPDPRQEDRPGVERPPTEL
Method: as §1, §2, §3, §4, §5, §6, §7

ovine PGHS-1 [3] = biological target: T2, ovine PGHS-1; assay: as above; type: biochemical; conditions: FIG. 5; 1 h at room temperature

Compound	IC50 (human PGHS-2; 3 h at room temperature) [µM]	IC50 (PGHS-1)/IC50 (PGHS-2) (human PGHS-2)	inhibitory effect on PGHS-2 in activated macrophages compared with aspirin [1]	IC50 (ovine PGHS-1 [2]) [µM]	inhibition of cyclooxygenase activity in activated macrophages [1]	also measured
CC(=O)n1ccnc1 [N-acetylimidazole]						inhibition of cyclooxygenase activity of apoPGHS-1 (apoPGHS-1): inhibits the cyclooxygenase activity of apoPGHS-1; reactivation after addition of hydroxylamine (apoPGHS-1; hydroxylamine added): the enzyme activity is regenerated
CSc1ccccc1OC(C)=O [Compound 2, 2-acetoxythioanisole]	250	> 100	greater inhibitory effect on PGHS-2 in activated macrophages than aspirin			inhibition of cyclooxygenase activity of holoPGHS-2 (holoPGHS-2; FIG. 7, pH 9, 10 mM inhibitor): greatly inhibited; inhibition of cyclooxygenase activity (apo- and holoPGHS-2): greater than 70%
CCCCCCCSc1ccccc1OC(C)=O [Compound 54, 2-Acetoxyphenylheptyl sulfide]	2	3	greater inhibitory effect on PGHS-2 in activated macrophages than aspirin	6	greatly inhibited	inhibition of cyclooxygenase activity of human holoPGHS-2 (in words) (human PGHS-2; FIG. 9, 3 h at room temperature): greatly inhibited; pH dependency of inhibition of cyclooxygenase activity of human holoPGHS-2 (holoPGHS-2; FIG. 10, pH 6, 7, 8, 9, 181 μM): greatest inhibition seen at pH 9
CCCCC#CCSc1ccccc1OC(C)=O [Compound 87, 2-Acetoxyphenyl-hept-2-ynyl sulfide]		21		> 17	greatly inhibited	inhibition of cyclooxygenase activity of human holoPGHS-2 (in words) (human PGHS-2; FIGS. 12 and 13, 1-16 μM): greatly inhibited
CC(=O)Oc1ccccc1C(=O)O [aspirin]						inhibitory effect on PGHS-1 versus PGHS-2 (ovine PGHS-1 [3]): greater inhibitory effect on PGHS-1 than PGHS-2

From patent US6284918A, “Selective inhibitors of prostaglandin endoperoxide synthase-2” (priority 1999, dated 2001)
